This is an account of results in patent US20140309293A1, “CRYSTALLINE FORM” (L[…] INTE[…].P. A., priority 2011, published 2014).

The data set can be described thus: accelerated stability test. In kind it is physicochemical. As to conditions: compared with the known crystalline forms of R-(+)-α-lipoic acid. From the text: Since it is a pharmaceutically active molecule which is notoriously very reactive and tends to polymerise, improved stability obviously represents a very important quality.

As for `O=C(O)CCCCC1CCSS1` (stereo not drawn) [new crystalline form, R-(+)-α-lipoic acid], the “stability of the crystalline form” value is “more stable than the known crystalline forms”.
